# What was measured:
# phosphatase = conditions: in the presence of complex-forming reagents like EDTA; cited from earlier work
# [1] = system: phosphatases in COS7 cell lysate; test: Inhibition of phosphatases in COS7 cell lysate; assay type: biochemical; conditions: 1 mM orthovanadate (alone or with 27 mM mannitol), FIG. 5
# Experimental: COS7 cells were collected, washed 3 times with 50 mM Hepes, 50 mM NaCl pH 7.0 and lysed using 5 ml M-Per (Pierce) for 10 min. After centrifugation the lysate was collected as the supernatant.
# (§1) Subsequently, an aliquot of 10 μl was transferred from each mixture to a microwell plate. 5 μl of a solution of a test peptide (R-R-L-I-E-D-A-E-pY-A-A-R-G (SEQ ID NO: 1); 1 mM in water) and 10 μl of a buffer containing 0.1 mM CaCl2, 50 mM Tris pH 7.0 were added to each well and incubated for 30 min at 37° C. Free phosphate resulting from the enzymatic hydrolysis was then detected via addition of 100 μl of a 1M HCl solution additionally containing 0.034% [w/v] malachite green, 10 mM sodium molybdate and 3.4 [v/v] ethanol. The detection was performed for 10 min at RT while constantly agitating the microwell plate. Relative concentrations of free phosphate were detected following the determination of the extinction (620 nm) of each reaction well.
# [2] = system: phosphatases in insect cell (SF9) lysate; test: Inhibition of phosphatases in insect cell lysate; assay type: biochemical; conditions: 1 mM orthovanadate (alone or with 27 mM mannitol), FIG. 4
# Experimental: 270 mg insect cells (SF9) were collected, washed 3 times with 50 mM Hepes, 50 mM NaCl pH 7.0 and lysed using 2.5 ml M-Per (Pierce) for 10 min. After centrifugation the lysate was collected as the supernatant.
# as §1, with “mixture into a well of” for “mixture to”, “a 1 M” for “a 1M”, “and 3.4%” for “and 3.4”
compound,measurement,setting,value
"[O]=[V]([O-])([O-])[O-] [Na3VO4, orthovanadate]",factor by which the phosphatase inhibiting effect is reduced,phosphatase,"about 1,000"
same,phosphatase activity (residual),[1],52%
same,phosphatase activity (residual),[2],14%

# Reference: US8278086B2, “Enhancement of vanadium-containing phosphatase inhibitors” (Roche Diagnostics Operations, Inc., priority 2007, dated 2012)
